Reference: ChEMBL document CHEMBL1255531, “Utilization of a nitrogen-sulfur nonbonding interaction in the design of new 2-aminothiazol-5-yl-pyrimidines as p38α MAP kinase inhibitors” (Bioorg Med Chem Lett, 2010)
In brackets after ≈: the same amount, converted by molar mass. Values belong to the compound of their own block, whether it stands above or below them. Activity calls are given as the source filed them. The rule behind the calls is not given here.

Key:
[1] = target: Mitogen-activated protein kinase 14 (Homo sapiens, UniProt Q16539); assay: Inhibition of bacterially expressed activated p38alpha pre-incubated 10 mins measured after 45 mins by scintillation counting
PBMC = assay: Antiinflammatory activity in human PBMC assessed as inhibition of LPS-induced TNFalpha production after 6 hrs by ELISA; format: functional, cell-based
LIM domain kinase 1 = LIM domain kinase 1 (Homo sapiens, UniProt P53667); assay: Inhibition of LIMK1
LIM domain kinase 2 = LIM domain kinase 2 (Homo sapiens, UniProt P53671); assay: Inhibition of LIMK2
[2] = Aqueous solubility of the compound at pH 6.5; format: physicochemical; conditions: buffer
[3] = Selectivity ratio of IC50 for p38alpha to IC50 for LIMK1
[4] = Selectivity ratio of IC50 for p38alpha to IC50 for LIMK2
[5] = target: Tyrosine-protein kinase ABL1 (Homo sapiens) (UniProt P00519); assay: Inhibition of ABL1 at 10 uM relative to control
[6] = target: 5'-AMP-activated protein kinase catalytic subunit alpha-1 (Homo sapiens) (UniProt Q13131); assay: Inhibition of AMPKA1 at 10 uM relative to control
[7] = target: Aurora kinase A (Homo sapiens) (UniProt O14965); assay: Inhibition of aurora A at 10 uM relative to control
[8] = target: Aurora kinase C (Homo sapiens) (UniProt Q9UQB9); assay: Inhibition of aurora C at 10 uM relative to control
[9] = target: Calcium/calmodulin-dependent protein kinase type 1 (Homo sapiens) (UniProt Q14012); assay: Inhibition of CAMK1A at 10 uM relative to control
[10] = target: Calcium/calmodulin-dependent protein kinase type 1D (Homo sapiens) (UniProt Q8IU85); assay: Inhibition of CAMK1D at 10 uM relative to control
[11] = target: Cyclin-dependent kinase 2 (Homo sapiens) (UniProt P24941); assay: Inhibition of CDK2 at 10 uM relative to control
[12] = target: Casein kinase I isoform epsilon (Homo sapiens) (UniProt P49674); assay: Inhibition of CK1E at 10 uM relative to control
[13] = target: Dual specificity protein kinase CLK1 (Homo sapiens) (UniProt P49759); assay: Inhibition of CLK1 at 10 uM relative to control
[14] = target: Tyrosine-protein kinase CSK (Homo sapiens) (UniProt P41240); assay: Inhibition of CSK at 10 uM relative to control
[15] = target: Death-associated protein kinase 2 (Homo sapiens) (UniProt Q9UIK4); assay: Inhibition of DAPK2 at 10 uM relative to control
[16] = target: Epidermal growth factor receptor (Homo sapiens) (UniProt P00533); assay: Inhibition of EGFR at 10 uM relative to control
[17] = target: Ephrin type-A receptor 2 (Homo sapiens) (UniProt P29317); assay: Inhibition of EPHA2 at 10 uM relative to control
[18] = target: Ephrin type-B receptor 4 (Homo sapiens) (UniProt P54760); assay: Inhibition of EPHB4 at 10 uM relative to control
[19] = target: Fibroblast growth factor receptor 1 (Homo sapiens) (UniProt P11362); assay: Inhibition of FGF1R at 10 uM relative to control
[20] = target: Receptor-type tyrosine-protein kinase FLT3 (Homo sapiens) (UniProt P36888); assay: Inhibition of FLT3 at 10 uM relative to control
[21] = target: Cyclin-G-associated kinase (Homo sapiens) (UniProt O14976); assay: Inhibition of GAK at 10 uM relative to control
[22] = target: Insulin-like growth factor 1 receptor (Homo sapiens) (UniProt P08069); assay: Inhibition of IGF1R at 10 uM relative to control
[23] = target: Insulin receptor (Homo sapiens) (UniProt P06213); assay: Inhibition of INSR at 10 uM relative to control
[24] = target: Vascular endothelial growth factor receptor 2 (Homo sapiens) (UniProt P35968); assay: Inhibition of KDR at 10 uM relative to control
[25] = target: Mitogen-activated protein kinase kinase kinase 4 (Homo sapiens) (UniProt Q9Y6R4); assay: Inhibition of MAP3K4 at 10 uM relative to control
[26] = target: Serine/threonine-protein kinase MARK2 (Homo sapiens) (UniProt Q7KZI7); assay: Inhibition of MARK2 at 10 uM relative to control
[27] = target: MAP kinase-interacting serine/threonine-protein kinase 2 (Homo sapiens) (UniProt Q9HBH9); assay: Inhibition of MNK2 at 10 uM relative to control
[28] = target: Serine/threonine-protein kinase Nek2 (Homo sapiens) (UniProt P51955); assay: Inhibition of NEK2 at 10 uM relative to control
[29] = target: Serine/threonine-protein kinase PAK 1 (Homo sapiens) (UniProt Q13153); assay: Inhibition of PAK1 at 10 uM relative to control
[30] = target: Serine/threonine-protein kinase PAK 4 (Homo sapiens) (UniProt O96013); assay: Inhibition of PAK4 at 10 uM relative to control
[31] = target: Serine/threonine-protein kinase PAK 5 (Homo sapiens) (UniProt Q9P286); assay: Inhibition of PAK5 at 10 uM relative to control
[32] = target: Phosphorylase b kinase gamma catalytic chain, skeletal muscle/heart isoform (Homo sapiens) (UniProt Q16816); assay: Inhibition of PHKG1 at 10 uM relative to control
[33] = target: Serine/threonine-protein kinase pim-1 (Homo sapiens) (UniProt P11309); assay: Inhibition of PIM1 at 10 uM relative to control
[34] = target: Proto-oncogene tyrosine-protein kinase Src (Homo sapiens) (UniProt P12931); assay: Inhibition of SRC at 10 uM relative to control
[35] = target: Serine/threonine-protein kinase 16 (Homo sapiens) (UniProt O75716); assay: Inhibition of STK16 at 10 uM relative to control
[36] = target: Tyrosine-protein kinase SYK (Homo sapiens) (UniProt P43405); assay: Inhibition of SYK at 10 uM relative to control
[37] = target: Angiopoietin-1 receptor (Homo sapiens) (UniProt Q02763); assay: Inhibition of TIE2 at 10 uM relative to control
[38] = target: High affinity nerve growth factor receptor (Homo sapiens) (UniProt P04629); assay: Inhibition of TRKA at 10 uM relative to control
[39] = target: Mitogen-activated protein kinase 8 (Homo sapiens) (UniProt P45983); assay: Inhibition of JNK1 at 10 uM relative to control
[40] = target: Mitogen-activated protein kinase 10 (Homo sapiens) (UniProt P53779); assay: Inhibition of JNK3 at 10 uM relative to control
[41] = target: Mast/stem cell growth factor receptor Kit (Homo sapiens) (UniProt P10721); assay: Inhibition of KIT at 10 uM relative to control
[42] = target: Platelet-derived growth factor receptor beta (Homo sapiens) (UniProt P09619); assay: Inhibition of PDGRB at 10 uM relative to control
[43] = target: Myosin light chain kinase 2, skeletal/cardiac muscle (Homo sapiens) (UniProt Q9H1R3); assay: Inhibition of skeletal muscle MLCK at 10 uM relative to control; conditions: Muscle tissue

Sequence of Mitogen-activated protein kinase 14 (Q16539 whole entry): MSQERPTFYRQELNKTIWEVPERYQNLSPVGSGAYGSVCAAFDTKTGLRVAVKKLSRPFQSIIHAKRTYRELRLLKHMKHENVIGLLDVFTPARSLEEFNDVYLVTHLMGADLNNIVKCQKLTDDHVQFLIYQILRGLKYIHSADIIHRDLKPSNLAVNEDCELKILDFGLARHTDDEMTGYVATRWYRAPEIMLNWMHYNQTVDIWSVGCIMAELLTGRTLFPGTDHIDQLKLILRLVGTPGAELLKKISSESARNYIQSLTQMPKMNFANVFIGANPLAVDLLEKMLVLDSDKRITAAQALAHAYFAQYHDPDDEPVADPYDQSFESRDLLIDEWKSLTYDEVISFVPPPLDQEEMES
Sequence of LIM domain kinase 1 (P53667 whole entry, the tested form may be a part): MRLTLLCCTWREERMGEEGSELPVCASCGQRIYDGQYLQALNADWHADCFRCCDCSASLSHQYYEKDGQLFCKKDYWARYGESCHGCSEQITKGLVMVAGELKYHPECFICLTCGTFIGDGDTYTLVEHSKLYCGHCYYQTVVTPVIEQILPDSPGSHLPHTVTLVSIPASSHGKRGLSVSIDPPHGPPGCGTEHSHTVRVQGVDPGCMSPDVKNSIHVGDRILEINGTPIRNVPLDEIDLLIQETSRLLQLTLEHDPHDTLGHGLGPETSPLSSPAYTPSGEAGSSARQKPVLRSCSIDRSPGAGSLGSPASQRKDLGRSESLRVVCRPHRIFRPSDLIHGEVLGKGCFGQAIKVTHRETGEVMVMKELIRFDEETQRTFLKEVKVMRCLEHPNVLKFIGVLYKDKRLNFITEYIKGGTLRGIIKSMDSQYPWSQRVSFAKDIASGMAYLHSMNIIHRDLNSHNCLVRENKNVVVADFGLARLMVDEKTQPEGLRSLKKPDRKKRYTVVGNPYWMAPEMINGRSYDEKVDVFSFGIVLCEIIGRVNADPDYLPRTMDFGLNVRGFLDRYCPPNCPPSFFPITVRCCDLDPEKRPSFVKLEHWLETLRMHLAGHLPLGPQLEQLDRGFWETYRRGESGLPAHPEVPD
Sequence of LIM domain kinase 2 (P53671 whole entry, the tested form may be a part): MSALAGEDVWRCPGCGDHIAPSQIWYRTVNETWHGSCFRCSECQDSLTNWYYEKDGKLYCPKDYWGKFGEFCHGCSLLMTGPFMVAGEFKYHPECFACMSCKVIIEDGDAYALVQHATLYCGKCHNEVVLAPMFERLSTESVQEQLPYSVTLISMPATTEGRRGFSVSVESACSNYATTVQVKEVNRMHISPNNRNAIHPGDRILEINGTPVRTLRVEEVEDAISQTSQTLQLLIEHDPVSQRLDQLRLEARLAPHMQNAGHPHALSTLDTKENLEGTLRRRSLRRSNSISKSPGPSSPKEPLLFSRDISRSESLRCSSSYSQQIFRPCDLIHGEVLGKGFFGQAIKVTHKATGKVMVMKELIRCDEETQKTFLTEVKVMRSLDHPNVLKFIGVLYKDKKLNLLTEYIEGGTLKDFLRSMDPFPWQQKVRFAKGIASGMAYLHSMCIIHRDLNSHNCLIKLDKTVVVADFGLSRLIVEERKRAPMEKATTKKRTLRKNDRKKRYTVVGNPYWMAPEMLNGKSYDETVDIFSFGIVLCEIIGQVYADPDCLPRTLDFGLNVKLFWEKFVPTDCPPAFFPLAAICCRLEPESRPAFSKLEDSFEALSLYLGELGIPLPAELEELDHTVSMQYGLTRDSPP
Sequence of Tyrosine-protein kinase ABL1 (Homo sapiens) (P00519 whole entry): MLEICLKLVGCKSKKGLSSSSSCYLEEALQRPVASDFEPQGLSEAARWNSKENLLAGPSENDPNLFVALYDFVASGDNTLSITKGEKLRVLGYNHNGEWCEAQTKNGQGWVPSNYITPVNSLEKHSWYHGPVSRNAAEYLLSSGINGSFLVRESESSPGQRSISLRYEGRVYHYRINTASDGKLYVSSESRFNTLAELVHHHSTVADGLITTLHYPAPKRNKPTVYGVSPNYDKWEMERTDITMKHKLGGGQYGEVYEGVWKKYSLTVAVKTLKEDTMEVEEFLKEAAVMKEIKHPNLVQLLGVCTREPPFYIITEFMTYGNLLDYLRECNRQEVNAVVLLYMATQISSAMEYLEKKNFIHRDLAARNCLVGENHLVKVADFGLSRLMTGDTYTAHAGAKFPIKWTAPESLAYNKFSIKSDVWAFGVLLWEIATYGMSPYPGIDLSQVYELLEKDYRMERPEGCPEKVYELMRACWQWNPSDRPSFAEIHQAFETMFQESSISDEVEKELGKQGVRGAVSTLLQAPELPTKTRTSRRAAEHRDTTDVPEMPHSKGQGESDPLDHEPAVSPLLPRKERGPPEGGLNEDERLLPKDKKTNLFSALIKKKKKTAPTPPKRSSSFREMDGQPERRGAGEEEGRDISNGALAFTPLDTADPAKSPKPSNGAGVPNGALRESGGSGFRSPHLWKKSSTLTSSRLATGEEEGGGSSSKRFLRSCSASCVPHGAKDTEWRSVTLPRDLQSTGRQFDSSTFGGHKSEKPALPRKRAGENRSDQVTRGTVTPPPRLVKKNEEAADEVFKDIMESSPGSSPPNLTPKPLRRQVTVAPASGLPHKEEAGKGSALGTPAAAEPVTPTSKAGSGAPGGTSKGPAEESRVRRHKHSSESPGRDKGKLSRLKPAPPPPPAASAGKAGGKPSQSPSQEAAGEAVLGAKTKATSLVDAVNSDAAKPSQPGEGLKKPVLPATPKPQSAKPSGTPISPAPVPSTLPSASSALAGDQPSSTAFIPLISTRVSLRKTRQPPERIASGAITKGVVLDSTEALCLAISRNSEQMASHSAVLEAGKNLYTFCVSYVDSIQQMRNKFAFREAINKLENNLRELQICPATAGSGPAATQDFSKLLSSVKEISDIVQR
Sequence of Ephrin type-B receptor 4 (Homo sapiens) (P54760 whole entry): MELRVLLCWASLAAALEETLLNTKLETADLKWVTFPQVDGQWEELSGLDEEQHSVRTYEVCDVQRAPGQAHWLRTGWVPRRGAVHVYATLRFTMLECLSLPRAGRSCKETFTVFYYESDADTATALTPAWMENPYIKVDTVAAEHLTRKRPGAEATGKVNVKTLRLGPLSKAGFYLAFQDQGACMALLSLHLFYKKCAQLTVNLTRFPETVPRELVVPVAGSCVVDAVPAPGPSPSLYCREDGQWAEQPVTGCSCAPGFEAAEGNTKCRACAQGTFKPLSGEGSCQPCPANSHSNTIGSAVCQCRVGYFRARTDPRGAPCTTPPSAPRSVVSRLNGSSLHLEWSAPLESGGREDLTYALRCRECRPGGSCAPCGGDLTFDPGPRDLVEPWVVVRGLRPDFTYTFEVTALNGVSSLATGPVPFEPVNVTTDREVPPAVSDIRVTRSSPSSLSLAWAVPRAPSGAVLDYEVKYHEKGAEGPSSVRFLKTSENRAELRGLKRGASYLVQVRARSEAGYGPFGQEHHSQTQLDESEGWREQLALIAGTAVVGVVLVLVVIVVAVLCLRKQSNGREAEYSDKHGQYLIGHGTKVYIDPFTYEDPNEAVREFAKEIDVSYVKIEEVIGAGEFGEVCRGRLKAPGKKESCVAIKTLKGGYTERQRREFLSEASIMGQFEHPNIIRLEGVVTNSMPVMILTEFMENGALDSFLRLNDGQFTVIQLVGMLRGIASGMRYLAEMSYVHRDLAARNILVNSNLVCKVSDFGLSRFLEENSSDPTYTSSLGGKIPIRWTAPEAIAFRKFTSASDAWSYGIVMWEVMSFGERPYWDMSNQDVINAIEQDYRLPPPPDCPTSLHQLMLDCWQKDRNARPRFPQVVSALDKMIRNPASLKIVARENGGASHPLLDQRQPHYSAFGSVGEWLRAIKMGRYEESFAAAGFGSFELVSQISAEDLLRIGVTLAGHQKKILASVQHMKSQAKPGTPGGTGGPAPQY
Sequence of Tyrosine-protein kinase CSK (Homo sapiens) (P41240 2-450 limits assumed): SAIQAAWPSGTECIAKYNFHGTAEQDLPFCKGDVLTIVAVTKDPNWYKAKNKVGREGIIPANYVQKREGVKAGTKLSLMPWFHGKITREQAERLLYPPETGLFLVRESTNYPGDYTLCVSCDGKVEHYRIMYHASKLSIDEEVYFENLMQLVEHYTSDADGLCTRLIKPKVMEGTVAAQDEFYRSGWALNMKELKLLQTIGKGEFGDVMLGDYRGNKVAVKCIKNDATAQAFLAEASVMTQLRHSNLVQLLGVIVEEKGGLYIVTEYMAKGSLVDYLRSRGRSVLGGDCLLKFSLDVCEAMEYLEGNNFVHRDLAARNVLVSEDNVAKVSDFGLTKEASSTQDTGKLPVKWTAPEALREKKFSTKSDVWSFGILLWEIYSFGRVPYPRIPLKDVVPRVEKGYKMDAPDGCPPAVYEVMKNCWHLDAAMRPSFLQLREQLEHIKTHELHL
Sequence of Dual specificity protein kinase CLK1 (Homo sapiens) (P49759 whole entry, looked up): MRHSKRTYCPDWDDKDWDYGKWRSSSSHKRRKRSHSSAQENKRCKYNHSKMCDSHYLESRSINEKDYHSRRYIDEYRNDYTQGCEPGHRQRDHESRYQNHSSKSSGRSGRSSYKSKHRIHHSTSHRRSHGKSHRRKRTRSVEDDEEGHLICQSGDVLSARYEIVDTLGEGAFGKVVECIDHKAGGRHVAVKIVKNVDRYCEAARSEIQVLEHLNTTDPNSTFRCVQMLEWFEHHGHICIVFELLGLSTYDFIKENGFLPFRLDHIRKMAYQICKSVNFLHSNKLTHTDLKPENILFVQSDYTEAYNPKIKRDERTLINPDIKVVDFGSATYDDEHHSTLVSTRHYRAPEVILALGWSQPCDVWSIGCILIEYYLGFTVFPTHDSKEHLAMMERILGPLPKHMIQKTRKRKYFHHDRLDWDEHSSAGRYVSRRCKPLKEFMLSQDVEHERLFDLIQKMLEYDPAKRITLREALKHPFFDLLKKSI
Sequence of Aurora kinase C (Homo sapiens) (Q9UQB9 whole entry): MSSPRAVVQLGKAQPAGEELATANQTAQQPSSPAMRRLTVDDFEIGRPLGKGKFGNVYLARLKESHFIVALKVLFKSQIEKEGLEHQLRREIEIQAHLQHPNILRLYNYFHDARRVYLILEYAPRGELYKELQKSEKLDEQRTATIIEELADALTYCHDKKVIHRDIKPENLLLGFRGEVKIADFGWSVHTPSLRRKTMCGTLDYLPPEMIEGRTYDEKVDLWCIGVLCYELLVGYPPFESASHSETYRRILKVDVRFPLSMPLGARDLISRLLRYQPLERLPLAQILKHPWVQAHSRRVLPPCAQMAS

SMILES: CC(C)Nc1ncc(-c2cc(-c3ccccc3Cl)nc(N(C)C)n2)s1
IC50 [1]: 0.573 µM

SMILES: CCCNc1ncc(-c2ccnc(-c3ccccn3)n2)s1
IC50 [1]: 0.314 µM

SMILES: CCCNc1ncc(-c2cc(-c3ccc(F)cc3)nc(-c3ccccn3)n2)s1
IC50 [1]: 0.052 µM

SMILES: CCCNc1ncc(-c2cc(-c3ccccc3F)nc(C)n2)s1
IC50 [1]: 0.52 µM

SMILES: CCCNc1ncc(-c2cc(-c3ccccc3F)nc(C3CC3)n2)s1
IC50 [1]: > 1 µM

SMILES: Nc1ncc(-c2cc(-c3ccccc3Cl)nc(-c3ccccn3)n2)s1
IC50 [1]: 0.114 µM

SMILES: CCCNc1ncc(-c2ccnc(C3CC3)n2)s1
IC50 [1]: > 1 µM

SMILES: CCCNc1ncc(-c2cc(-c3ccccc3F)nc(-c3ccccn3)n2)s1
IC50 [1]: 0.052 µM | IC50 (PBMC): 0.062 µM

SMILES: CCNC(=O)NCc1ccccc1-c1cc(-c2cnc(NC(C)C)s2)nc(NCCN(C)C)n1
IC50 (PBMC): 0.003 µM | solubility [2]: 5940 ng/mL (≈ 12.3 µM) | Selectivity ratio [3]: > 10000 | Selectivity ratio [4]: > 10000 | inhibition [5]: inactive | inhibition [6]: inactive | inhibition [7]: inactive | inhibition [8]: inactive | inhibition [9]: inactive | inhibition [10]: inactive | inhibition [11]: inactive | inhibition [12]: inactive | inhibition [13]: inactive | inhibition [14]: inactive | inhibition [15]: inactive | inhibition [16]: inactive | inhibition [17]: inactive | inhibition [18]: inactive | inhibition [19]: inactive | inhibition [20]: inactive | inhibition [21]: inactive | inhibition [22]: inactive | inhibition [23]: inactive | inhibition [24]: inactive | inhibition [25]: inactive | inhibition [26]: inactive | inhibition [27]: inactive | inhibition [28]: inactive | inhibition [29]: inactive | inhibition [30]: inactive | inhibition [31]: inactive | inhibition [32]: inactive | inhibition [33]: inactive | inhibition [34]: inactive | inhibition [35]: inactive | inhibition [36]: inactive | inhibition [37]: inactive | inhibition [38]: inactive | inhibition [39]: 24.9% | inhibition [40]: 0.2% | inhibition [41]: 14.5% | inhibition [42]: 11.3% | inhibition [43]: inactive

SMILES: CC[C@H](C)Nc1ncc(-c2cc(-c3ccccc3Cl)nc(-c3ccccn3)n2)s1
IC50 [1]: 0.008 µM | IC50 (PBMC): 0.031 µM | solubility [2]: < 5 ng/mL

SMILES: CC(C)Nc1ncc(-c2ccnc(-c3ccccc3Cl)n2)s1
IC50 [1]: 0.223 µM

SMILES: CCCNc1ncc(-c2cc(-c3ccc(OCC)cc3Cl)nc(-c3ccccn3)n2)s1
IC50 [1]: 3.94 µM

SMILES: CC[C@@H](C)Nc1ncc(-c2cc(-c3ccccc3Cl)nc(-c3ccccn3)n2)s1
IC50 [1]: 0.005 µM | IC50 (PBMC): 0.013 µM | solubility [2]: < 5 ng/mL

SMILES: CCCNc1ncc(-c2ccnc(-c3ccccc3F)n2)s1
IC50 [1]: > 30 µM

SMILES: CCCNc1ncc(-c2cc(-c3ccccc3OCC)nc(-c3ccccn3)n2)s1
IC50 [1]: 0.859 µM

SMILES: CCCNc1ncc(-c2cc(-c3ccccc3F)nc(N)n2)s1
IC50 [1]: 0.225 µM

Now from value to compound, other results behind:

IC50 [1]: 0.004 µM | IC50 (LIM domain kinase 1): 0.252 µM | IC50 (LIM domain kinase 2): 0.362 µM | solubility [2]: < 5 ng/mL
SMILES: CC(C)Nc1ncc(-c2cc(-c3ccccc3Cl)nc(-c3ccccn3)n2)s1
IC50 (PBMC): 0.021 µM

IC50 [1]: 0.046 µM
SMILES: CC(C)Nc1ncc(-c2cc(-c3ccccc3Cl)ncn2)s1
IC50 (PBMC): 0.031 µM

IC50 [1]: 0.042 µM
SMILES: CCCNc1ncc(-c2cc(-c3ccc(F)cc3Cl)nc(-c3ccccn3)n2)s1
IC50 (PBMC): 0.017 µM

IC50 [1]: 0.016 µM
SMILES: Clc1ccccc1-c1cc(-c2cnc(NC3CCC3)s2)nc(-c2ccccn2)n1
IC50 (PBMC): 0.028 µM

IC50 [1]: 0.017 µM
SMILES: Clc1ccccc1-c1cc(-c2cnc(NC3CC3)s2)nc(-c2ccccn2)n1
IC50 (PBMC): 0.022 µM

IC50 [1]: 0.008 µM
SMILES: CC(C)Nc1ncc(-c2cc(-c3ccccc3Cl)nc(NCCO)n2)s1
IC50 (PBMC): 0.008 µM

IC50 [1]: 0.016 µM
SMILES: CC(C)Nc1ncc(-c2cc(-c3ccccc3Cl)nc(N)n2)s1
IC50 (PBMC): > 0.25 µM

IC50 [1]: 0.005 µM | IC50 (LIM domain kinase 1): 0.00401 µM | IC50 (LIM domain kinase 2): 0.00305 µM | solubility [2]: 994 ng/mL (≈ 2.38 µM)
SMILES: CC(C)Nc1ncc(-c2cc(-c3ccccc3Cl)nc(NCCN(C)C)n2)s1
IC50 (PBMC): 0.001 µM

IC50 [1]: 0.002 µM
SMILES: CNC(=O)NCc1ccccc1-c1cc(-c2cnc(NC(C)C)s2)nc(NCCN(C)C)n1
IC50 (PBMC): 0.012 µM

IC50 [1]: 0.006 µM
SMILES: CC(C)Nc1ncc(-c2cc(-c3ccccc3Cl)nc(NCC(O)CO)n2)s1 (stereo not given)
IC50 (PBMC): 0.011 µM

IC50 [1]: 0.016 µM
SMILES: CC(C)Nc1ncc(-c2cc(-c3ccccc3CNC(=O)NC3CC3)nc(NCCN(C)C)n2)s1
IC50 (PBMC): 0.011 µM

IC50 [1]: 0.017 µM
SMILES: CCNc1ncc(-c2cc(-c3ccccc3Cl)nc(-c3ccccn3)n2)s1
IC50 (PBMC): 0.119 µM

IC50 [1]: 0.022 µM
SMILES: CCCNc1ncc(-c2cc(-c3ccccc3Cl)nc(-c3ccccn3)n2)s1
IC50 (PBMC): 0.017 µM
